Source: article PMC12406681 (Antimicrobial Agents and Chemotherapy, 2025)
Read-outs that look alike come from different tables or passages of the source.

Key:
Assay type in all cases: cell-based, La Crosse virus
[1] = system: LACV D35G mutant
[2] = system: LACV V27A mutant
[3] = system: LACV V27A mutant; conditions: Vero cells; for Fold change (/original stock) / Fold change (/passage control): EC50 ratio; for EC50: mean ± SD
[4] = system: LACV D35G mutant; conditions: Vero cells; for Fold change (/original stock) / Fold change (/passage control): EC50 ratio; for EC50: mean ± SD

SMILES | EC50 [1] | Fold change (/original stock) [1] | Fold change (/passage control) [1] | EC50 [2] | Fold change (/original stock) [2] | Fold change (/passage control) [2] | Fold change (/original stock) [3] | Fold change (/passage control) [3] | EC50 [3] | Fold change (/original stock) [4] | Fold change (/passage control) [4] | EC50 [4]
CC(C)N1CN(C2c3ccccc3CCc3ccccc32)n2cc(C(=O)O)c(=O)c(O)c2C1=O [CAPCA-1, carbamoyl pyridone carboxylic acid (CAPCA)-1] | 12.9 ± 2.22 µM | 13.57 | 19.83 | 4.63 ± 0.8 µM | 4.87 | 7.12 | 12.91 | 7.03 | 5.55 ± 1.64 µM | >46.51 | >25.32 | > 20 µM
NC(=O)c1nc(F)c[nH]c1=O [T-705, favipiravir, reference compound] |  |  |  |  |  |  | 1.17 | 1.01 | 44.3 ± 5.15 µM | 1.51 | 1.30 | 57 ± 11.8 µM
